Assay results: PubChem BioAssay (NCI)
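Compound exposure: 48 hours, 5 concentrations, 96-well plates. The concentration for full growth arrest is given as TGI.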

What was measured:
Assay in all cases: NCI tumour cell line growth inhibition, 48 h
SNB-78 CNS = test system: SNB-78 CNS
HT29 colon = test system: HT29 colon
MALME-3M melanoma = test system: MALME-3M melanoma
OVCAR-8 ovarian = test system: OVCAR-8 ovarian
SK-MEL-5 melanoma = test system: SK-MEL-5 melanoma
NCI-H226 lung = test system: NCI-H226 lung
HCT-15 colon = test system: HCT-15 colon
RPMI-8226 leukemia = test system: RPMI-8226 leukemia
M19-MEL melanoma = test system: M19-MEL melanoma
LOX IMVI melanoma = test system: LOX IMVI melanoma
DLD-1 colon = test system: DLD-1 colon
KM20L2 colon = test system: KM20L2 colon
SNB-19 CNS = test system: SNB-19 CNS
SN12C renal = test system: SN12C renal
SR leukemia = test system: SR leukemia
HOP-62 NSCLC = test system: HOP-62 NSCLC
CCRF-CEM leukemia = test system: CCRF-CEM leukemia
786-0 renal = test system: 786-0 renal
SW-620 colon = test system: SW-620 colon
NCI-H460 lung = test system: NCI-H460 lung
HCT-116 colon = test system: HCT-116 colon
NCI-H522 lung = test system: NCI-H522 lung
OVCAR-5 ovarian = test system: OVCAR-5 ovarian
SNB-75 CNS = test system: SNB-75 CNS
SF-295 CNS = test system: SF-295 CNS
M14 melanoma = test system: M14 melanoma
MOLT-4 leukemia = test system: MOLT-4 leukemia
HL-60(TB) leukemia = test system: HL-60(TB) leukemia
ACHN renal = test system: ACHN renal
A549 NSCLC = test system: A549 NSCLC
SK-MEL-2 melanoma = test system: SK-MEL-2 melanoma
DMS 114 small cell lung = test system: DMS 114 small cell lung
K-562 leukemia = test system: K-562 leukemia
EKVX NSCLC = test system: EKVX NSCLC
HCC-2998 colon = test system: HCC-2998 colon
RXF-631 renal = test system: RXF-631 renal
NCI-H23 lung = test system: NCI-H23 lung
OVCAR-4 ovarian = test system: OVCAR-4 ovarian
HOP-92 NSCLC = test system: HOP-92 NSCLC
SK-MEL-28 melanoma = test system: SK-MEL-28 melanoma
SK-OV-3 ovarian = test system: SK-OV-3 ovarian
UACC-62 melanoma = test system: UACC-62 melanoma
CAKI-1 renal = test system: CAKI-1 renal
SF-539 CNS = test system: SF-539 CNS
KM12 colon = test system: KM12 colon
IGROV1 ovarian = test system: IGROV1 ovarian
U251 CNS = test system: U251 CNS
HOP-18 NSCLC = test system: HOP-18 NSCLC
UACC-257 melanoma = test system: UACC-257 melanoma
COLO 205 colon = test system: COLO 205 colon
RXF 393 renal = test system: RXF 393 renal
LXFL 529 NSCLC = test system: LXFL 529 NSCLC
OVCAR-3 ovarian = test system: OVCAR-3 ovarian
XF 498 CNS = test system: XF 498 CNS
SF-268 CNS = test system: SF-268 CNS
DMS 273 small cell lung = test system: DMS 273 small cell lung
TK-10 renal = test system: TK-10 renal
P388/ADR leukemia = test system: P388/ADR leukemia
MCF7 breast = test system: MCF7 breast
UO-31 renal = test system: UO-31 renal
P388 leukemia = test system: P388 leukemia
NCI/ADR-RES ovarian = test system: NCI/ADR-RES ovarian
SN12K1 renal = test system: SN12K1 renal
A498 renal = test system: A498 renal

CCCCCCCCCCCCCCCC(=O)OCC1OC(n2c(O)c(N=NC(N)=S)c3ccc([N+](=O)[O-])cc32)C(OC(C)=O)C1OC(C)=O (stereo not given)
TGI (SNB-78 CNS): > 100 µM | TGI (HT29 colon): > 100 µM | TGI (MALME-3M melanoma): > 100 µM | TGI (OVCAR-8 ovarian): > 100 µM | TGI (SK-MEL-5 melanoma): > 100 µM | TGI (NCI-H226 lung): > 100 µM | TGI (HCT-15 colon): > 100 µM | TGI (RPMI-8226 leukemia): > 100 µM | TGI (M19-MEL melanoma): > 100 µM | TGI (LOX IMVI melanoma): > 100 µM | TGI (DLD-1 colon): > 100 µM | TGI (KM20L2 colon): > 100 µM | TGI (SNB-19 CNS): > 100 µM | TGI (SN12C renal): > 100 µM | TGI (SR leukemia): > 100 µM | TGI (HOP-62 NSCLC): > 100 µM | TGI (CCRF-CEM leukemia): > 100 µM | TGI (786-0 renal): > 100 µM | TGI (SW-620 colon): > 100 µM | TGI (NCI-H460 lung): > 100 µM | TGI (HCT-116 colon): > 100 µM | TGI (NCI-H522 lung): > 100 µM | TGI (OVCAR-5 ovarian): > 100 µM | TGI (SNB-75 CNS): > 100 µM | TGI (SF-295 CNS): > 100 µM | TGI (M14 melanoma): > 100 µM | TGI (MOLT-4 leukemia): > 100 µM | TGI (HL-60(TB) leukemia): > 100 µM | TGI (ACHN renal): > 100 µM | TGI (A549 NSCLC): > 100 µM | TGI (SK-MEL-2 melanoma): > 100 µM | TGI (DMS 114 small cell lung): > 100 µM | TGI (K-562 leukemia): > 100 µM | TGI (EKVX NSCLC): > 100 µM | TGI (HCC-2998 colon): > 100 µM | TGI (RXF-631 renal): > 100 µM | TGI (NCI-H23 lung): > 100 µM | TGI (OVCAR-4 ovarian): > 100 µM | TGI (HOP-92 NSCLC): > 100 µM | TGI (SK-MEL-28 melanoma): > 100 µM | TGI (SK-OV-3 ovarian): > 100 µM | TGI (UACC-62 melanoma): > 100 µM | TGI (CAKI-1 renal): > 100 µM | TGI (SF-539 CNS): > 100 µM | TGI (KM12 colon): > 100 µM | TGI (IGROV1 ovarian): > 100 µM | TGI (U251 CNS): > 100 µM | TGI (HOP-18 NSCLC): > 100 µM | TGI (UACC-257 melanoma): > 100 µM | TGI (COLO 205 colon): > 100 µM | TGI (RXF 393 renal): > 100 µM | TGI (LXFL 529 NSCLC): > 100 µM | TGI (OVCAR-3 ovarian): > 100 µM | TGI (XF 498 CNS): > 100 µM | TGI (SF-268 CNS): > 100 µM | TGI (DMS 273 small cell lung): > 100 µM | TGI (TK-10 renal): > 100 µM

COc1cc[n+](C)cc1
TGI (SNB-78 CNS): > 100 µM | TGI (HT29 colon): > 100 µM | TGI (MALME-3M melanoma): > 100 µM | TGI (OVCAR-8 ovarian): > 100 µM | TGI (SK-MEL-5 melanoma): > 100 µM | TGI (NCI-H226 lung): > 100 µM | TGI (HCT-15 colon): > 100 µM | TGI (RPMI-8226 leukemia): > 100 µM | TGI (M19-MEL melanoma): > 100 µM | TGI (LOX IMVI melanoma): > 100 µM | TGI (DLD-1 colon): > 100 µM | TGI (KM20L2 colon): > 100 µM | TGI (SNB-19 CNS): > 100 µM | TGI (SN12C renal): > 100 µM | TGI (HOP-62 NSCLC): > 100 µM | TGI (CCRF-CEM leukemia): > 100 µM | TGI (SW-620 colon): > 100 µM | TGI (NCI-H460 lung): > 100 µM | TGI (HCT-116 colon): > 100 µM | TGI (NCI-H522 lung): > 100 µM | TGI (OVCAR-5 ovarian): > 100 µM | TGI (SNB-75 CNS): > 100 µM | TGI (SF-295 CNS): > 100 µM | TGI (MOLT-4 leukemia): > 100 µM | TGI (HL-60(TB) leukemia): > 100 µM | TGI (A549 NSCLC): > 100 µM | TGI (SK-MEL-2 melanoma): > 100 µM | TGI (DMS 114 small cell lung): > 100 µM | TGI (K-562 leukemia): > 100 µM | TGI (EKVX NSCLC): > 100 µM | TGI (HCC-2998 colon): > 100 µM | TGI (NCI-H23 lung): > 100 µM | TGI (OVCAR-4 ovarian): > 100 µM | TGI (HOP-92 NSCLC): > 100 µM | TGI (SK-MEL-28 melanoma): > 100 µM | TGI (P388/ADR leukemia): > 100 µM | TGI (SK-OV-3 ovarian): > 100 µM | TGI (UACC-62 melanoma): > 100 µM | TGI (MCF7 breast): > 100 µM | TGI (SF-539 CNS): > 100 µM | TGI (KM12 colon): > 100 µM | TGI (UO-31 renal): > 100 µM | TGI (IGROV1 ovarian): > 100 µM | TGI (P388 leukemia): > 100 µM | TGI (U251 CNS): > 100 µM | TGI (HOP-18 NSCLC): > 100 µM | TGI (UACC-257 melanoma): > 100 µM | TGI (NCI/ADR-RES ovarian): > 100 µM | TGI (COLO 205 colon): > 100 µM | TGI (RXF 393 renal): > 100 µM | TGI (OVCAR-3 ovarian): > 100 µM | TGI (XF 498 CNS): > 100 µM | TGI (SF-268 CNS): > 100 µM | TGI (DMS 273 small cell lung): > 100 µM | TGI (SN12K1 renal): > 100 µM

S=c1[nH]c2ccc(Br)cc2c(=S)n1-c1ccccc1
TGI (SNB-78 CNS): > 100 µM | TGI (HT29 colon): 47.7 µM | TGI (MALME-3M melanoma): 32.1 µM | TGI (OVCAR-8 ovarian): > 100 µM | TGI (SK-MEL-5 melanoma): 35.5 µM | TGI (NCI-H226 lung): 83.6 µM | TGI (HCT-15 colon): 63.2 µM | TGI (RPMI-8226 leukemia): 56.7 µM | TGI (M19-MEL melanoma): 60.7 µM | TGI (LOX IMVI melanoma): 85.1 µM | TGI (DLD-1 colon): > 100 µM | TGI (KM20L2 colon): > 100 µM | TGI (SNB-19 CNS): > 100 µM | TGI (SN12C renal): 98.7 µM | TGI (HOP-62 NSCLC): 47 µM | TGI (CCRF-CEM leukemia): > 100 µM | TGI (786-0 renal): 96.8 µM | TGI (SW-620 colon): > 100 µM | TGI (NCI-H460 lung): 45.2 µM | TGI (HCT-116 colon): 43.9 µM | TGI (OVCAR-5 ovarian): > 100 µM | TGI (SNB-75 CNS): 79.1 µM | TGI (SF-295 CNS): 55.7 µM | TGI (M14 melanoma): 98.6 µM | TGI (ACHN renal): 79.3 µM | TGI (A549 NSCLC): > 100 µM | TGI (SK-MEL-2 melanoma): 43.7 µM | TGI (DMS 114 small cell lung): 54.3 µM | TGI (K-562 leukemia): > 100 µM | TGI (EKVX NSCLC): > 100 µM | TGI (HCC-2998 colon): 40.8 µM | TGI (RXF-631 renal): > 100 µM | TGI (NCI-H23 lung): 65.6 µM | TGI (OVCAR-4 ovarian): > 100 µM | TGI (HOP-92 NSCLC): 78.5 µM | TGI (SK-MEL-28 melanoma): 59.9 µM | TGI (SK-OV-3 ovarian): 85.6 µM | TGI (A498 renal): 98.4 µM | TGI (UACC-62 melanoma): 32.3 µM | TGI (CAKI-1 renal): > 100 µM | TGI (SF-539 CNS): 44.4 µM | TGI (KM12 colon): 72.5 µM | TGI (UO-31 renal): 59 µM | TGI (IGROV1 ovarian): 89.1 µM | TGI (U251 CNS): 48.4 µM | TGI (HOP-18 NSCLC): 85.4 µM | TGI (UACC-257 melanoma): 36.9 µM | TGI (COLO 205 colon): 47.1 µM | TGI (OVCAR-3 ovarian): 78.3 µM | TGI (XF 498 CNS): 36.6 µM | TGI (SF-268 CNS): > 100 µM | TGI (DMS 273 small cell lung): 60.7 µM | TGI (TK-10 renal): > 100 µM
